Laboratory results from patent US10143668B2, “Hydroxy-substituted amino and ammonium derivatives and their medical use” (GRI BIO, INC., priority 2011, dated 2018).
Like-named read-outs stand apart in the source and are kept apart here.

Columns and labels:
[1] = tested on: local lymph node reaction; assay: Local lymph node weight and cell count after TDI challenge; conditions: topical, diflorasone 0.1% and 0.5%, 1a 2% or 6%
Procedure: Directly after sacrifice, the ear draining lymph node (Ln. auricularis) was prepared and excised. Organ weight was determined by means of an analytical balance (Kern, Balingen, Germany). Single cell suspensions were prepared by means of a glass potter (VWR, Darmstadt, Germany) and cells were counted with a hemocytometer (Neubauer, VWR, Germany).
One of the most undesirable side-effects of corticosteroid administration is immunosuppression, which leads to the inability to effectively address parasitic infection, wound healing and tumor growth. In the current study, the local lymph node reaction after TDI challenge (lymph node weight and cell number) was determined to assess the response of immune organs.

DTH response in mice = type: in vivo; conditions: for Inhibition of mouse ear swelling: 24 h after challenge
Procedure: The anti-inflammatory and anti-allergic effects of compound 1a was assessed in a mouse model of skin delayed-type hypersensitivity (DTH) reactions and compared to a vehicle control and to the reference drug, dexamethasone. DTH reactions are antigen-specific cell-mediated immune responses, driven primarily by T helper type 1 (Th1) cells, similar to the tuberculin immunization response. The immune reaction induced by an ovalbumin challenge to animals previously sensitized with ovalbumin in Complete Freund's Adjuvant, is characterized by swelling (edema) at the site of challenge, e.g. the mouse ear. Dexamethasone, an anti-inflammatory steroid, reduces cell-mediated immune responses and was employed to validate the responsiveness of the assay to pharmacological treatment.
Female BALB/cJW mice were bred at the University of Lodz, Lodz, Poland and housed in groups of 8 in makrolon cages with a 12 h light-dark cycle. Mice were given free access to food (Agropol S. j., Motycz, Poland) and water.
Sensitization: The protein antigen, ovalbumin, was reconstituted in PBS at 4 mg/ml. An ovalbumin-CFA emulsion was prepared by mixing the protein solution with the CFA suspension at a ratio of 1:1, using two Luer-lock syringes. The emulsion was tested by putting a drop of emulsion onto PBS; if the emulsion remained as a tight droplet on the PBS, the emulsion was deemed ready. Mice were sensitized by subcutaneously injecting 25 μL of emulsion into each side of the tail (100 μg ovalbumin per mouse).
Challenge: On the sixth day after sensitization, DTH was elicited by challenging animals subcutaneously (gauge 30 needle, B. Braun Melsungen, Melsungen, Germany) in the left ears with 10 μL of a 1% suspension of heat-aggregated ovalbumin (HOVA) (100 μg ovalbumin per mouse). The right ears were administered subcutaneously with PBS and served to determine the individual differences in ear thicknesses. HOVA was prepared by heating a 5% solution of ovalbumin in saline for 1 h at 80° C. with occasional swirling. After cooling to room temperature and centrifugation (400 g, 10 min at 4° C.), the pellet was washed twice with saline, resuspended at 2% in PBS and aliquots stored at −30° C. Before injection, HOVA was diluted with an equal volume of PBS and sonicated. Ear thickness was measured with a precise spring-loaded caliper (Art. No. 7309, Mitutoyo, Kawasaki, Japan) before challenge, and 24 h after challenge.
Sensitization, challenge and ear thickness measurement were performed under anesthesia (ketamine 80 mg/kg plus xylazine 8 mg/kg, intraperitoneally).
The anti-inflammatory effects of compound 1a were compared to a vehicle control (0.5% methyl cellulose solution) and to the reference drug, dexamethasone. Test compound was given at 25 or 100 mg/kg orally by gavage (Art. No. 432093, Harvard Apparatus GmbH, March-Hugstetten, Germany) 16 h and 3 h before sensitization and then twice daily with the final dose given 3 h prior to ear challenge (a total of 14 administrations). Dexamethasone was given at 0.1 or 1 mg/kg orally by gavage 3 h before sensitization and once daily with the final dose given 3 h prior to antigen challenge (a total of 7 administrations). All administrations were given in a volume of 10 mL/kg.
To account for individual variability, the increase in right ear thickness, before and 24 h after administration of PBS, was subtracted from the HOVA-induced increase in left ear thickness. […]
Mean and standard deviation (SD) were calculated from individual ear edema values. […]

## CCCCCCCCCCCCCC[N+](C)(C)CC(=O)N(C)C[C@H](O)[C@@H](O)[C@H](O)[C@H](O)CO [Compound 1a, N-(2-(Dimethyl(tetradecyl)ammonio)acetyl)-N-methyl-D-glucamine chloride]
[1]
  local lymph node reaction (lymph node weight and cell number): only a modest effect
DTH response in mice; 25 mg/kg orally twice daily
  Inhibition of mouse ear swelling: 43%
DTH response in mice; 100 mg/kg orally twice daily
  Inhibition of mouse ear swelling: 50%
DTH response in mice; 25 or 100 mg/kg orally twice daily vs dexamethasone 1 mg/kg
  inhibition relative to that of the high dose of dexamethasone: up to 94%
